Converted amounts (≈) assume the structure as drawn.
Assays:
[1] = Chemical stability of the compound in aqueous buffer assessed as half life at pH 8 by thin layer chromatography; assay type: physicochemical; conditions: for half-life: aqueous buffer
[2] = tested on: Escherichia coli; experiment: Antibacterial activity against Escherichia coli; assay type: functional
[3] = tested on: Staphylococcus aureus; experiment: Antibacterial activity against Staphylococcus aureus; assay type: functional
[4] = tested on: Bacillus subtilis; experiment: Antibacterial activity against Bacillus subtilis; assay type: functional
[5] = Chemical stability of the compound in aqueous buffer assessed as half life at pH 5 by thin layer chromatography; assay type: physicochemical; conditions: for half-life: aqueous buffer; for Stability: buffer
[6] = Chemical stability of the compound in aqueous buffer assessed as half life at pH 7 by thin layer chromatography; assay type: physicochemical
[7] = Chemical stability of the compound in aqueous buffer assessed as half life at pH 10 by thin layer chromatography; assay type: physicochemical; conditions: for half-life: aqueous buffer

| SMILES | half-life [1] [h] | MIC [2] [µg/mL] | MIC [3] [µg/mL] | MIC [4] [µg/mL] | half-life [5] [h] | half-life [6] [h] | half-life [7] [h] | Stability ([1]; buffer) | Stability [5] | Stability ([7]; buffer) |
| --- | --- | --- | --- | --- | --- | --- | --- | --- | --- | --- |
| N=C(N)NCCCCCCC(=O)NCC(=O)NCCCCNCCCN | 260 | > 250 | 10 (≈ 26.9 µM) | 10 (≈ 26.9 µM) | 90 | 100 | 3 |  |  |  |
| COC(NC(=O)CCCCCCNC(=N)N)C(=O)NCCCCNCCCN (racemic) | 720 | > 250 | 50 (≈ 125 µM) | 50 (≈ 125 µM) | 140 | 190 | 48 |  |  |  |
| N=C(N)NCCCCCCC(=O)NC(C(=O)NCCCCNCCCN)c1ccc(Br)cc1 (racemic) |  | > 250 | 50 (≈ 95 µM) | 50 (≈ 95 µM) |  | 440 | 420 | Unstable | Unstable |  |
| N=C(N)NCCCCCCC(=O)NC(CCc1ccccc1)C(=O)NCCCCNCCCN (racemic) | 563 | > 250 | 50 (≈ 105 µM) | 50 (≈ 105 µM) |  | 203 |  |  | Unstable | Unstable |
